In US11166958B2, “4-pyrazin-2-ylmethyl-morpholine derivatives and the use thereof as medicament” (Boehringer Ingelheim International GmbH, priority 2018, dated 2021):

Biological target: NMDA NR1/NR2B receptor (Homo sapiens (Human), UniProt Q13224)
Experiment: In vitro NMDA NR1/NR2B cell assay (FLIPR, intracellular calcium induced by glycine/glutamate)
Assay type: cell-based
Conditions: HEK293 NR1/NR2B, 20 μM glycine / 1 μM glutamate, read-out: In vitro NR2B affinity, IC50
Protocol: A human HEK293 cell line with tetracyclin-inducible expression of NMDA NR1/NR2B receptor was used as a test system for compound efficacy and potency. The cell line was purchased from ChanTest, Catalog #CT6121. Compound activity was determined by measuring the effect of compounds on intracellular calcium concentration induced by glycine/glutamate agonism in a FLIPRtetra system (Molecular Devices).
The cells were obtained as frozen cells in cryo-vials and stored until use at −150° C. Cells were grown in culture medium (DMEM/F12, 10% FBS, 5 μg/mL Blasticidin, 150 μg/mL Zeozin, 500 μg/mL Geneticin). […] For sub-culturing the cells were detached from flasks by Versene. For the assay, cells were detached, washed twice with induction medium (DMEM/F12 without glutamine, 10% FBS, 2 μg/mL Tetracycline, 2 mM Ketamine) and seeded to 384 well pure coat amine plates (Becton Dickinson, 50000 cells per well in 50 μl) 48 h prior to assay in induction medium.
The test compounds were dissolved in 100% DMSO at a concentration of 10 mM and in a first step diluted in DMSO to a concentration of 5 mM, followed by serial dilution steps in 100% DMSO. Dilution factor and number of dilution steps may vary according to needs. Typically 8 different concentrations by 1:5 dilutions were prepared in duplicate, further intermediate dilutions (1:37.5) of the substances were carried out with aqueous assay buffer (137 mM NaCl, 4 mM KCl, 1.8 mM CaCl2), 10 mM HEPES, 10 mM Glucose, pH 7.4) resulting in a compound concentration 3 times above the final test concentration and DMSO at 2.7% resulting in 0.9% final DMSO concentration in the assay.
At the assay day cells were washed 3× with assay buffer (as described above), 10 μL buffer remained in the wells after washing. 10 μL Ca kit loading buffer (AAT Bioquest; prepared from the kit containing the following components: Component A: Fluo-8 NW dissolved in 200 μL DMSO and 20 μl of this solution are mixed with 10 ml buffer prepared out of component B and C, Component B: 10× Pluronic® F127 Plus diluted 1:10 in component C, Component C: HHBS (Hanks with 20 mM Hepes) was added to the cells and the plates were incubated with lid for 60 minutes at room temperature. 20 μl assay buffer containing 60 μM glycine (20 μM final) and 3 μM glutamate (1 μM final) was added to column 1-23, column 24 got assay buffer without glycine/glutamate to serve as negative unstimulated control. Fluorescence (indicating the calcium influx as a result of the NR1/NR2B ion channel activation) was read on the FLIPRtetra device for 60 seconds to monitor the glutamate induced effects. After 2 minutes 20 μL of compound dilution prepared as described above or controls (row 1-22) in assay buffer were carefully added to the wells. […] The average of 2 measurements at 5 minutes and 5 min 10 seconds after compound addition is calculated and further used for IC50 calculations. Each assay microtiter compound dilution plate contained wells (in column 23 or 24) with DMSO controls instead of compound as controls for glycine/glutamate induced fluorescence (high controls) and wells with 1 μM of a reference NR2B NAM as low controls (Compound 22; reference: Layton, Mark E et al, ACS Chemical Neuroscience 2011, 2(7), 352-362).
The output file of the reader contains the well number and measured average fluorescence units. For data evaluation and calculation, the measurement of the low control was set as 0% control and the measurement of the high control was set as 100% control. The IC50 values were calculated using the standard 4 parameter logistic regression formula. Calculation: [y=(a−d)/(1+(x/c)^b)+d], a=low value, d=high value; x=conc M; c=IC50 M; b=slope.

Sequence of NMDA NR1/NR2B receptor (Q13224 27-1484, other chains not shown): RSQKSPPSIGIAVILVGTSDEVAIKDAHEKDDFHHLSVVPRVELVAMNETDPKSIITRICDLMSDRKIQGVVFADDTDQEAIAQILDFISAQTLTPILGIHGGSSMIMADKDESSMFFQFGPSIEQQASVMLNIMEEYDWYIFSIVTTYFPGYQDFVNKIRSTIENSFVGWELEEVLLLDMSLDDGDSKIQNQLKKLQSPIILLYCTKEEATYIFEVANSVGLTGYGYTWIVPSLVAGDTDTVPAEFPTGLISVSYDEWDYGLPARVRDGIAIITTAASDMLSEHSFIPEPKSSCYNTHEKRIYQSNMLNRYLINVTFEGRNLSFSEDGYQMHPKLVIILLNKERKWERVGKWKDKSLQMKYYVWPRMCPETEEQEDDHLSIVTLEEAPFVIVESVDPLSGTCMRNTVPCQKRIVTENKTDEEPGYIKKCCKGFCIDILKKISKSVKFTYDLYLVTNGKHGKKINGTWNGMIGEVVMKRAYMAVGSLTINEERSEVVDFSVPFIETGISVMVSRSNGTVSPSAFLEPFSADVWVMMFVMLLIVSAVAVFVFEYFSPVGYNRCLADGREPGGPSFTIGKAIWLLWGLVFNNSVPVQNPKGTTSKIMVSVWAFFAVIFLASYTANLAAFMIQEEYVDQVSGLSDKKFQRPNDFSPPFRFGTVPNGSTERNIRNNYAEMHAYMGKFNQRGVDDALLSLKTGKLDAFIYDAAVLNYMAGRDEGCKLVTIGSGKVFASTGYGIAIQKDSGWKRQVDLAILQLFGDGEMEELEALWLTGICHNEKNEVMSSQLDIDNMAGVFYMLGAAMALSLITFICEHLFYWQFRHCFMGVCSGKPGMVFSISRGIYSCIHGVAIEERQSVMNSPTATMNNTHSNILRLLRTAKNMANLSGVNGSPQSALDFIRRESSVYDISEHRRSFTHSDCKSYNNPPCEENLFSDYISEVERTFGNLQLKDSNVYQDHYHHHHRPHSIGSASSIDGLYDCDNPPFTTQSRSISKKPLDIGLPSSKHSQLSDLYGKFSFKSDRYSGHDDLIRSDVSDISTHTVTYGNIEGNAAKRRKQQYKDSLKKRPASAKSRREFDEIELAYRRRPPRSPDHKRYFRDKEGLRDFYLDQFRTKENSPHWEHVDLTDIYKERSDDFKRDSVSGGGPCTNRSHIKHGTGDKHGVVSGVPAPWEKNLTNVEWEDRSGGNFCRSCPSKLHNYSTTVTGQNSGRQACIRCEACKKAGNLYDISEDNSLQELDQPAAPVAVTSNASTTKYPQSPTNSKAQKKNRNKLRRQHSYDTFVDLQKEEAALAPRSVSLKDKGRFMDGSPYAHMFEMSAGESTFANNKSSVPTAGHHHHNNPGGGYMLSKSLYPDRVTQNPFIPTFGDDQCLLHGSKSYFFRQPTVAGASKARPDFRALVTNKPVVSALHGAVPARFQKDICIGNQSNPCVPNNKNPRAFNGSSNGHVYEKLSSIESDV

SMILES | IC50 [nM]
CNC(=O)[C@@H]1CN(Cc2cnc(Oc3ccc(F)cc3)cn2)CCO1 [Example 1] | 968
CNC(=O)[C@@H]1CN(Cc2cnc(Oc3ccc(C)cc3F)cn2)CCO1 [Example 2] | 123
CNC(=O)[C@@H]1CN(Cc2cnc(Oc3ccc(C)cc3)cn2)CCO1 [Example 3] | 690
CNC(=O)[C@@H]1CN(Cc2cnc(Oc3ccc(C)cc3C)cn2)CCO1 [Example 4] | 1200
CNC(=O)[C@@H]1CN(Cc2cnc(Oc3ccc(Cl)cc3F)cn2)CCO1 [Example 5] | 110
CNC(=O)[C@@H]1CN(Cc2cnc(Oc3ccc(F)cc3F)cn2)CCO1 [Example 6] | 87
CNC(=O)[C@@H]1CN(Cc2cnc(Oc3ccc(Cl)cc3)cn2)CCO1 [Example 7] | 1000
CNC(=O)[C@@H]1CN(Cc2cnc(Oc3ccc(F)cc3C)cn2)CCO1 [Example 8] | 856
CNC(=O)[C@@H]1CN(Cc2cnc(Oc3ccccc3F)cn2)CCO1 [Example 9] | 210
CNC(=O)[C@@H]1CN(Cc2cnc(Oc3ccccc3Cl)cn2)CCO1 [Example 18] | 222
CCNC(=O)[C@@H]1CN(Cc2cnc(Oc3ccc(F)cc3F)cn2)CCO1 [Example 30] | 595
CCNC(=O)[C@@H]1CN(Cc2cnc(Oc3ccc(C)cc3F)cn2)CCO1 [Example 31] | 524
CCNC(=O)[C@@H]1CN(Cc2cnc(Oc3ccccc3Cl)cn2)CCO1 [Example 33] | 807
